ChEMBL document CHEMBL5370596, “Wulfenioidins D-N, Structurally Diverse Diterpenoids with Anti-Zika Virus Activity Isolated from Orthosiphon wulfenioides” (J Nat Prod, 2023)
Calls of active or inactive are those of the source. The calls are words filed in the database; no cut-off is given here.

Columns and labels:
[1] = test system: Vero; assay: (§1) Cytotoxicity against African green monkey Vero cells assessed as reduction in cell viability after 72 hrs by CCK-8 assay; format: toxicity, cell-based; conditions: chlorocebus sabaeus, vero, 72 h
[2] = test system: Zika virus; assay: Antiviral activity against ZIKV infected in African green monkey Vero cells assessed as inhibition of viral replication incubated for 72 hrs by qRT-PCR analysis; format: functional, organism-based
[3] = test system: Zika virus; assay: Antiviral activity against ZIKV infected in African green monkey Vero cells assessed as inhibition of viral E protein expression incubated for 72 hrs by Western blot analysis; format: functional, organism-based; conditions: dose 5-20 µM
[4] = test system: Zika virus; assay: Antiviral activity against ZIKV infected in African green monkey Vero cells assessed as inhibition of viral E protein expression at 20 uM incubated for 72 hrs by immunofluorescence analysis; format: functional, organism-based
[5] = as §1; format: toxicity, cell-based; conditions: chlorocebus sabaeus, Vero cells
[6] = test system: Zika virus; assay: Antiviral activity against ZIKV infected in African green monkey Vero cells assessed as inhibition of viral replication at 50 uM incubated for 72 hrs by qRT-PCR analysis; format: functional, organism-based

EC50 [2]	Compound	Activity [1]	inhibition [3]	inhibition [4]	CC50 at 72 h [5]	inhibition [6]
–	Cc1nc2c(C(C)C)cc3c(c2o1)[C@@]1(C)CCCC(C)(C)[C@@H]1C=C3	Toxic	–	–	–	–
–	CCc1nc2c(C(C)C)cc3c(c2o1)[C@@]1(C)CCCC(C)(C)[C@@H]1CC3	Toxic	–	–	–	–
–	CC1=C2CCCC(C)(C)[C@@H]2CC[C@@]12C=C(C(C)C)C(=O)O2	Toxic	–	–	–	–
8 µM	COC(C)(C)C1=Cc2ccc(C)c3c2[C@@](O)(C1=O)C(C)(C)CCC3	–	Dose-Dependent Effect	Active	> 100 µM	Active
8.07 µM	CO[C@@H]1CCC(C)(C)Oc2c(O)c(C(C)C)cc3ccc(C)c1c23	–	Dose-Dependent Effect	Active	> 100 µM	Active
–	CC(C)c1cc2c(c3ocnc13)[C@@]1(C)CCCC(C)(C)[C@@H]1CC2	Toxic	–	–	–	–
